From patent publication US9216995B2, “Pyridone derivative having integrase inhibitory activity” (SHIONOGI & CO., LTD., priority 2010, dated 2015)

Tests used:
HIV = experiment: Anti-HIV activity (HeLa-CD4 cells, β-gal reporter assay); format: cell-based; conditions: Human immunodeficiency virus 1, 72 h, concentration to inhibit HIV infection by 50%, 3 days, luminescence
Procedure: A HeLa-CD4 cell suspension (2.5×10^4 cell/well) was dispensed to each well on an assay plate. After incubating at 37° C. for 1 hour under condition of 5% CO2, a solution to dilute a compound (50 μL) was added to each well (provided that a cell control was excluded). A culture solution (50 μL) was added to a well of the cell control. The plate was incubated at 37° C. for 3 days under condition of 5% CO2.
After the culture solution was aspirated from each well, 100 μL of a cell lysate of the reporter assay kit—β gal—was added to all wells, and then the plate was frozen at −80° C. to completely lyse cells. The plate was left at room temperature to unfreeze the cell lysate, it was centrifuged at 1200 rpm for 5 minutes at room temperature (Kubota centrifuge KR-600P). 20 μL of the supernatant was dispensed from each well to 96-well black plate, 100 μL of a luminescent reagent of the reporter assay kit—β gal—was added to each well. The plate was incubated at room temperature for 1 hour. The luminescence intensity from each well was measured by MicroBeta TRILUX instrument (PerkinElmer). A concentration (conc.) to inhibit HIV infection by 50% was calculated to obtain an EC50 value.

HIV integrase = HIV integrase (Human immunodeficiency virus type 1 group M subtype B, UniProt P04585); experiment: Integrase inhibitory activity (strand transfer ELISA on streptavidin plates); format: biochemical; conditions: integrase inhibition rate, absorbance OD 405 nm
Procedure: By the same method as that described in Experimental Example 1 of Patent Document 2, a substrate DNA solution (2 μmol/μl) and a target DNA solution (5 μmol/μl) were prepared. […] Each sequence of a substrate DNA and a target DNA is as described in the same Experimental Example.
(2) Measurement of Inhibition Rate (IC50 Value)
Onto Immobilizer—Streptavidin Plates (manufactured by NUNC) was added 50 μl of a substrate DNA solution (2 μmol/μl). After adsorbing at room temperature for 60 minutes under shaking, it was washed with a phosphate buffer two times.
Then, to each well prepared as described above were added 12 μl of a buffer (composition: 150 mM MOPS (pH7.2), 75 mM MnCl2, 50 mM 2-mercaptoethanol, 25% glycerol, 500 μg/ml bovine serum albumin-fraction V), and 51 μl of a reaction solution prepared from 39 μl of distilled water. Then, 9 μl of an integrase solution (30 μmol) was added, and the mixture was mixed well. To a well as a negative control (NC) was added 9 μl of a diluting solution (composition: 20 mM MOPS (pH 7.2), 400 mM potassium glutamate, 1 mM EDTA, 0.1% NP-40, 20% glycerol, 1 mM DTT, 4 M urea), and this was mixed well using a plate mixer.
After the plate was incubated at 30° C. for 60 minutes, the reaction solution was discarded, followed by washing with 200 μl of a washing buffer (composition: 150 mM MOPS (pH 7.2), 50 mM 2-mercaptoethanol, 25% glycerol, 500 μg/ml bovine serum albumin-fraction V) three times.
Then, to each well were added 12 μl of a buffer (composition: 150 mM MOPS (pH 7.2), 75 mM MgCl2, 50 mM 2-mercaptoethanol, 25% glycerol, 500 μg/ml bovine serum albumin-fraction V), and 53 μl of a reaction solution prepared from 41 μl of distilled water. Further, 6 μl of a solution of a test compound in DMSO was added to each well, and 6 μl of DMSO was added to a well as a positive control (PC), followed by mixing well using a plate mixer. After the plate was incubated at 30° C. for 60 minutes, 1 μl of a target DNA (5 μmol/μl) was added, and this was mixed well using a plate mixer.
After each plate was incubated at 30° C. for 10 minutes, the reaction solution was discarded, followed by washing with a phosphate buffer two times. Then, an anti-digoxigenin antibody labeled with alkaline phosphatase (sheep Fab fragment: manufactured by Boehringer) was diluted 2000-fold with an antibody diluting solution, 100 μl of the diluent was added to bind at 30° C. for 1 hour, and this was washed successively with a phosphate buffer containing 0.05% Tween 20 two times, and a phosphate buffer two times. […]
C abs.: Absorbance of well of compound
NC abs.: Absorbance of NC
PC abs.: Absorbance of PC

Row | EC50 (HIV) | SMILES | IC50 (HIV integrase)
1 | 32 nM | C[C@@H]1CCO[C@H]2Cn3cc(C(=O)NCc4nccs4)c(=O)c(O)c3C(=O)N12 [Compound A-12] | 
2 | 16 nM | C[C@@H]1CCO[C@H]2Cn3cc(C(=O)NC(c4ccccc4)c4ccccc4)c(=O)c(O)c3C(=O)N12 [Compound A-15] | 
3 | 25 nM | C[C@@H]1CCO[C@H]2Cn3cc(C(=O)NC[C@@H]4CCCO4)c(=O)c(O)c3C(=O)N12 [Compound A-21] | 
4 | 15 nM | C[C@@H]1CCO[C@H]2Cn3cc(C(=O)NNC(=O)c4ccc(F)cc4)c(=O)c(O)c3C(=O)N12 [Compound A-38] | 
5 | 42 nM | C[C@@H]1CCO[C@H]2Cn3cc(C(=O)NCc4ccoc4)c(=O)c(O)c3C(=O)N12 [Compound A-41] | 
6 | 46 nM | C[C@@H]1CCO[C@H]2Cn3cc(C(=O)NCCC4CCCCC4)c(=O)c(O)c3C(=O)N12 [Compound A-42] | 
7 | 22 nM | C[C@@H]1CCO[C@H]2Cn3cc(C(=O)NCCc4cccs4)c(=O)c(O)c3C(=O)N12 [Compound A-65] | 
8 | 38 nM | C[C@@H]1CCO[C@H]2Cn3cc(C(=O)NCc4nc5ccccc5s4)c(=O)c(O)c3C(=O)N12 [Compound A-66] | 

Row | SMILES | EC50 (HIV) | IC50 (HIV integrase)
9 | C[C@@H]1CCO[C@H]2Cn3cc(C(=O)NCc4cc5ccccc5s4)c(=O)c(O)c3C(=O)N12 [Compound A-20] | 11 nM | 28.4 nM
10 | C[C@@H]1CCO[C@H]2Cn3cc(C(=O)NCc4cccs4)c(=O)c(O)c3C(=O)N12 [Compound A-39] | 11 nM | 27 nM
11 | C[C@@H]1CCO[C@H]2Cn3cc(C(=O)NCC4CCCCCC4)c(=O)c(O)c3C(=O)N12 [Compound A-50] | 32 nM | 13.5 nM
12 | C[C@@H]1CCO[C@H]2Cn3cc(C(=O)NCc4ccsc4)c(=O)c(O)c3C(=O)N12 [Compound A-56] | 6.4 nM | 29.7 nM
